The IC50 is the midpoint of a concentration-inhibition curve.

From patent US9611276B2, “Imidazo bicyclic iminium compounds as antitumor agents” (THE BOARD OF TRUSTEES OF THE LELAND STANFORD JUNIOR …, priority 2012, dated 2017) come the findings set out here.

Like-named read-outs stand apart in the source and are kept apart here.

The test system of one experiment is Hh pathway activity. The experiment can be described thus: Sufu-KO-LIGHT cell assay, Gli-dependent firefly luciferase reporter. Type of experiment: cell-based, mouse. The conditions noted are these: Mus musculus. The method, then: Sufu-KO-LIGHT cells were derived from Sufu knockout mouse embryonic fibroblasts according to the method of Chen et al. [Genes Dev. 2009; 23(16):1910-28.] The cells were co-transfected with the zeocin resistance vector (pVgRXR, Invitrogen) and a firefly luciferase reporter driven by eight Gli binding sites and a γ-crystallin basal promoter (8XGliBS-FL) [see Sasaki et al. Development. 1997; 124(7):1313-22.2]. […] Sufu-KO-LIGHT cells were cultured in DMEM (Invitrogen, 11965) containing 10% (v/v) fetal bovine serum (Invitrogen, No. 26140), 150 μg/mL zeocin (Invitrogen, R250-01), 1 mM sodium pyruvate (Invitrogen, 11360) and 1× PenStrep (Gibco, 15140).
All test compounds were dissolved in DMSO at 50 mM, serially diluted by 1:3, 1:4 or 1:5 in a 96-well translucent microplate (Greiner bio-one, 650201) and stored at −20° C. These serial dilutions were added to assay media freshly with final DMSO concentration of 0.2% (v/v).
The Sufu-KO-LIGHT cell assay provides a measure of Hh pathway activity and cytotoxicity. Sufu-KO-LIGHT cells were seeded into a 96-well plate (35,000 cells/well), cultured to confluency for 24 hrs and then incubated with test compounds in DMEM without phenol red (Invitrogen, 26140) containing 0.5% (v/v) fetal bovine serum (Invitrogen, No. 26140), 150 μg/mL zeocin (Invitrogen, R250-01), 1 mM sodium pyruvate (Invitrogen, 11360), 1× PenStrep (Gibco, 15140) for 16 hrs. Bright Glo (Promega, E2620) reagent (50 μL/well) was added to the cells, and luciferase activities were determined on a microplate luminometer (Veritas). To assess cytotoxicity, after 15 hrs of incubation with test compounds, CellTiter 96 AQueous One Solution Cell Proliferation Assay (Promega, G3580) reagent (20 μL/well) was added. Cell viability was determined by measuring absorption at 490 nm after 1 hr of incubation on a microplate spectrophotometer (Benchmark Plus, Bio-Rad). Biological triplicates were analyzed for each test compounds.
For orientation: In a reporter assay the amount or activity of a reporter protein is the signal.

Another experiment deals with BCC cell line. The experiment can be described thus: Murine basal cell carcinoma (BCC) cell proliferation. It is filed as cell-based, mouse. The source says: (§1) Murine basal cell carcinomas (BCCs) were derived from Ptch1+/−; p53−/− mice subjected to UV radiation [Aszterbaum et al., Nat. Med. (1999) 5:1285-91]. A line resistant to the Smo antagonist SANT-1 was obtained by culturing the cells in media containing increasing concentrations of the inhibitor until the majority of cells were killed and resistant clones emerged.

Experiment [1] relates to SANT-1-resistant BCC line. The experiment can be described thus: Proliferation of SANT-1-resistant BCC line. It is filed as cell-based, mouse.
From the text: as §1

A further experiment deals with BCC allograft tumors. In words: Murine BCC allograft model. Type of experiment: in vivo, mouse. The settings on record: 0.01% solution, topical, day 14. The procedure:
Murine BCC allograft model: Ptch1+/−; K14:Cre-ER2; p53fl/fl mice were injected with tamoxifen (to knock out p53) at six weeks of age, and at 8 weeks of age they were given one dose of 4 Gy of ionizing radiation. After BCCs formed and grew to 5-7 mm in diameter (typically between 6-8 months of age), they were harvested and dissociated to prepare a cell suspension. A mixture of the cell suspension and Matrigel was then injected subcutaneously into NOD/SCID mice purchased from Jackson Laboratories. Once the allografted tumors became visible, they were monitored with digital calipers and the volume was estimated by the formula (d^2)*D/2, where d is the smallest diameter of the tumor and D is the largest diameter. The compound was applied topically to the tumor as a DMSO solution (100 μL per application).

Experiment [2] has as its system medulloblastoma allograft tumors. The experiment can be described thus: Murine medulloblastoma allograft model. Type of experiment: in vivo, mouse. The conditions noted are these: 2 mg/kg/day, intraperitoneal, day 5. The method, then:
Murine medulloblastoma allograft model: Ptch1+/−; p53+/−; Math1:GFP mice were mated to generate pups with the appropriate genotype of Ptch1+/−; p53−/−; Math1:GFP. These mice will get medulloblastoma tumors when they are 6 to 10 weeks of age. The primary medulloblastoma tumors were harvested, dissected, dissociated by papain treatment and tissue trituration, and injected into the flanks of nude mice as a Matrigel mixture (50 μL of 2×10^7 tumor cells mixed with 50 μL of Matrigel). Secondary and tertiary tumors can subsequently be derived from these allografts as necessary. The length, width, and depth of each allograft were monitored, and compound testing began when the tumors reached a volume of 150 mm3 (approximately one week after tumors were first visible). The compounds were dissolved in a minimum volume of DMSO, and the DMSO solution was mixed with sterile corn oil so that the DMSO constituted less than 10% of the total volume. The drug was administered by intraperitoneal injection (50 μL), with each daily dose divided into two portions and administered at 12-hour intervals. The Smoothened antagonist vismodegib was administered at 50 mg/kg/day as a positive control.

The subject of a further experiment is Gli2. In words: Gli2 trafficking assay in NIH 3T3 cells. It is filed as cell-based. The conditions noted are these: ShhN treatment. The method, then:
NIH 3T3 cells were also employed in an assay to quantify Gli2 trafficking NIH-3T3 cells were seeded into 24-well plates containing poly-D-lysine-coated 12-mm glass coverslips (65,000 cells/well) and cultured for 24 hrs. […] Each compound or vehicle treatment was conducted in biological triplicates in the presence or absence of 10% (v/v) ShhN-conditioned medium. The cells were subsequently fixed in PBS containing 4% (v/v) paraformaldehyde for 12 min at room temperature, washed three times with PBS, permeabilized in PBS containing 0.5% (v/v) Triton X-100 for 5 min, and washed again twice in PBS. […] After three PBS washes, the coverslips were mounted onto slides using Prolong Gold Antifade Reagent with DAPI (Invitrogen, P36931). The cells were imaged using a Plan Apochromat 63×/1.4-0.6 oil immersion objective on an upright Leica DM4500B compound microscope. Ciliary Gli2 levels were quantified by determining total pixel intensity within a circular region manually placed at the distal end of each cilium and subtracting background fluorescence in an adjacent region of equivalent size. A total of 30 cilia from three coverslips were analyzed to determine the average ciliary Gli2 level for each experimental condition as a measure of Gli2 trafficking.

A further experiment addresses T1, Smo (Mus musculus, UniProt P56726).
T1 construct: endogenous in cells; host or cells: NIH 3T3
The experiment can be described thus: Smo trafficking assay in NIH 3T3 cells. Type of experiment: cell-based. The settings on record: Hh-responsive cells, ShhN stimulation. The text has this: The cells were imaged using a Plan Apochromat 63×/1.4-0.6 oil immersion objective on an upright Leica DM4500B compound microscope.

Setting [3] is: Table 1, assay not given, A-1 value equals the Sufu-KO-LIGHT value, read-out: IC50.
The mark [4] stands for this setting: Table 2, assay not given, read-out: IC50.
Where [5] appears, read: Table 3, assay not given, read-out: IC50.

T1 sequence (P56726 33-793): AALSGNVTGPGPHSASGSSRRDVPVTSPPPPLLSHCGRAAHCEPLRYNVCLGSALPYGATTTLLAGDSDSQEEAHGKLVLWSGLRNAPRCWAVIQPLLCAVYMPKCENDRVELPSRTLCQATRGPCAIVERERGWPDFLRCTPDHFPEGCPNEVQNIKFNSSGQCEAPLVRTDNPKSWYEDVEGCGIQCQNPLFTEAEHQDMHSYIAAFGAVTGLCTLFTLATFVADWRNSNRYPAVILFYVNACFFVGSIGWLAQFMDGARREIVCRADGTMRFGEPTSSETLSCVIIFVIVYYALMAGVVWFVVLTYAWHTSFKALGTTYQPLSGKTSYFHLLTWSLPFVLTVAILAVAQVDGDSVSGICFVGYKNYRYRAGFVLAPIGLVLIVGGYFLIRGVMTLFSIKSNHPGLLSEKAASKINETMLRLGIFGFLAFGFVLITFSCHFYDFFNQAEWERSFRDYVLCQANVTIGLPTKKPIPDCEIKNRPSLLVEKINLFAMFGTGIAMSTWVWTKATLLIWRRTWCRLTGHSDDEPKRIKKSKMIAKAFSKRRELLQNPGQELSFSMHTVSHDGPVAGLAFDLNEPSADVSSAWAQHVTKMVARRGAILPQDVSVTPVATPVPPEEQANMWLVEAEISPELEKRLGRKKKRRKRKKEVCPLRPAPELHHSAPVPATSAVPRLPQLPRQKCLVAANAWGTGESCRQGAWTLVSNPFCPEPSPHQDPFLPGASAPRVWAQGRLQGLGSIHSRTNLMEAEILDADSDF

As to `Brc1ccc(-c2c[n+](-c3ccccc3)c3n2CCCCC3)cc1` [Compound A-2], the IC50 in the experiment on Hh pathway activity was 7.9 µM. Still for that read-out and setting: in the case of `COc1ccccc1-[n+]1cc(-c2ccc(Br)cc2)n2c1CCCCC2` [Compound A-3] it was 0.34 µM; in that of `Brc1ccc(-c2c[n+](-c3ccc4c(c3)OCCO4)c3n2CCCCC3)cc1` [Compound A-4], 5 µM. On the same count and under the same terms, then `FC(F)(F)c1cccc(-[n+]2cc(-c3ccc(Br)cc3)n3c2CCCCC3)c1` [Compound A-5], with 12.3 µM; and `Clc1ccc(-[n+]2cc(-c3ccc(Br)cc3)n3c2CCCCC3)cc1` [Compound A-6], with 11.7 µM.

`CCOc1ccc(-[n+]2cc(-c3ccc(Cl)cc3)n3c2CCCCC3)cc1` [Compound A-7]: in the experiment with Hh pathway activity (setting [3]), the IC50 amounted to 3 µM.

Consider `CCOc1ccc(-[n+]2cc(-c3ccc(-c4ccccc4)cc3)n3c2CCCCC3)cc1` [Compound A-8], for which the “Proliferation of original BCC cell line” value in the experiment on BCC cell line was “able to block the proliferation”. Besides, the BCC proliferation in the experiment on BCC cell line (750 nM, dose-dependent) was 20 % of control. In addition, the “Proliferation of SANT-1-resistant line” value in experiment [1] is given as “able to block the proliferation”. Moreover, the IC50 in the experiment on Hh pathway activity (setting [3]) stood at 0.19 ± 0.14 µM. Besides, in the experiment on BCC allograft tumors, the “Tumor volume compared to control” value was “reduced tumor volume by half”. For the compound `CCOc1ccc(-[n+]2cc(-c3ccccc3)n3c2CCCCC3)cc1` [Compound A-9], the IC50 with Hh pathway activity (setting [3]) is 1.7 µM. Still for that read-out and setting: then `CCOc1ccc(-[n+]2cc(-c3ccc(OC)cc3)n3c2CCCCC3)cc1` [Compound A-10], with 2.5 µM. As for `COc1ccc(-[n+]2cc(-c3ccc(Cl)cc3)n3c2CCCCC3)cc1` [Compound A-11], in the experiment on Hh pathway activity (setting [3]), the IC50 amounted to 2.5 µM. As for `COc1ccc(-[n+]2cc(-c3ccc(OC(F)F)cc3)n3c2CCCCC3)cc1` [Compound A-12], the IC50 in the experiment with Hh pathway activity (setting [3]) was 13.9 µM.

Regarding `FC(F)Oc1ccc(-[n+]2cc(-c3ccc(Cl)cc3)n3c2CCCCC3)cc1` [Compound A-13], the IC50 in the experiment on Hh pathway activity (setting [3]) worked out at 17.5 µM. In the experiment on Hh pathway activity, `COc1ccc(-c2c[n+](-c3ccc(Br)cc3)c3n2CCCCC3)cc1` [Compound A-15] registered an IC50 of 3.3 µM. As to `CCOc1ccc(-c2c[n+](-c3cccc(C(F)(F)F)c3)c3n2CCCCC3)cc1` [Compound A-16], the 50% inhibitory concentration (IC50) with Hh pathway activity (setting [3]) was 7.4 µM. On to `CCc1ccc(-[n+]2cc(-c3ccc(OC(F)F)cc3)n3c2CCCCC3)cc1` [Compound A-17], for which, in the experiment on Hh pathway activity (setting [3]), the IC50 is 2.9 µM. With `CCOc1ccc(-c2c[n+](-c3ccccc3OC)c3n2CCCCC3)cc1` [Compound A-18], the IC50 in the experiment with Hh pathway activity (setting [3]) amounted to 0.08 µM. Same read-out and setting: in the case of `COc1ccccc1-[n+]1cc(-c2ccc(-c3ccccc3)cc2)n2c1CCCCC2` [Compound A-19] it was 0.03 µM. `CCOc1ccc(-[n+]2c(-c3ccc(OC)cc3)cn3c2CCCCC3)cc1` [Compound C-1]: the IC50 in the experiment on Hh pathway activity (setting [4]) stood at 1.6 µM. Same read-out and setting: then `COc1ccc(-c2cn3c([n+]2-c2ccccc2OC)CCCCC3)cc1` [Compound C-2], with 3.1 µM; and `COc1ccc(-c2cn3c([n+]2-c2ccc(C)cc2)CCCCC3)cc1` [Compound C-3], with 4.2 µM; and `COc1ccc(-c2cn3c([n+]2-c2ccc(Cl)cc2)CCCCC3)cc1` [Compound C-4], with 11.5 µM.

For `CCOc1ccc(-c2c(C)n3c([n+]2-c2ccc(OCC)cc2)CCCCC3)cc1` [Compound C-5], the IC50 with Hh pathway activity (setting [4]) worked out at 1.2 µM. Still for that read-out and setting: in the case of `COc1ccc(-[n+]2c(-c3ccc(Cl)cc3)cn3c2CCCCC3)cc1` [Compound C-6] it was 11.7 µM; in that of `COc1ccc(-[n+]2c(-c3ccc(OC(F)F)cc3)cn3c2CCCCC3)cc1` [Compound C-7], 6.3 µM; in that of `COc1ccc(-[n+]2c(-c3ccccc3)cn3c2CCCCC3)cc1` [Compound C-8], 4.1 µM.

In the case of `Clc1ccc(-c2cn3c([n+]2-c2ccc(Cl)cc2)CCCCC3)cc1` [Compound C-9], in the experiment with Hh pathway activity (setting [4]), the IC50 was 27 µM.

With `CCOc1ccc(-[n+]2cc(-c3ccccc3)n3c2CCC3)cc1` [Compound D-1], the IC50 in the experiment on Hh pathway activity (setting [5]) was found to be 0.96 µM. As to `COc1ccc(-c2c[n+](-c3ccc(OC)cc3)c3n2CCS3)cc1` [Compound D-2], the IC50 with Hh pathway activity (setting [5]) was found to be 3.1 µM. In the case of `COc1ccc(-[n+]2cc(-c3ccc(C)cc3)n3c2SC(C)C3)cc1` [Compound D-3], in the experiment with Hh pathway activity (setting [5]), the IC50 was 1.1 µM.

As for `COc1ccc(-[n+]2cc(-c3ccc(Br)cc3)n3c2SCC3C)cc1` [Compound D-4], in the experiment with Hh pathway activity (setting [5]), the IC50 was 2.6 µM. As for `COc1ccc(-[n+]2cc(-c3ccc(Cl)cc3)n3c2SCCC3)cc1` [Compound D-5], the concentration for half-maximal inhibition (IC50) in the experiment on Hh pathway activity (setting [5]) came out at 2.4 µM. On the same count and under the same terms, then `COc1ccc(-c2c[n+](-c3ccc(OC)cc3)c3n2CCOC3)cc1` [Compound D-6], with 14.1 µM. On to `CCOc1ccc(-c2c[n+](-c3ccc(OC)cc3)c3n2-c2ccccc2CC3)cc1.[Br-]` [Compound E-1], for which, in experiment [2], the “Tumor volume compared to control” value is given as “reduced tumor volume by half”. The half-inhibitory concentration (IC50) with Hh pathway activity (setting [5]) came out at 0.14 µM.

For `CC1=C2C[C@H]3[C@@H](CC=C4C[C@@H](O)CC[C@@]43C)[C@@H]2CC[C@]12O[C@@H]1C[C@H](C)CN[C@H]1[C@H]2C` [cyclopamine, reference compound], in the experiment with Gli2, the “Effect on ShhN-induced Gli2 accrual at the ciliary distal tip” value is listed as “cyclopamine-sensitive”. In addition, the “Effect on Smo localization / trafficking” value on Smo is reported as “alters Smo trafficking”.
